Active and inactive are the calls of the source. The rule behind the calls is not given here.
Target: Programmed cell death protein 1/Programmed cell death 1 ligand 1 (Homo sapiens, UniProt Q15116+Q9NZQ7)
Sequence (Q15116 whole entry): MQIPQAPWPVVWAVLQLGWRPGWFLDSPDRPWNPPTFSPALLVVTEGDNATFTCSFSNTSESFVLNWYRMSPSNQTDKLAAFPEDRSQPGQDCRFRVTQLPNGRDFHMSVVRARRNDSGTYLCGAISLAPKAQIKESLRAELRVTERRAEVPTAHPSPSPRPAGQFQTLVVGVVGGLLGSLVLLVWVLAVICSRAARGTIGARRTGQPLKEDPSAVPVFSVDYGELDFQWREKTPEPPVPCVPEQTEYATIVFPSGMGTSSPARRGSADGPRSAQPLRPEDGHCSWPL
Sequence (Q9NZQ7 whole entry): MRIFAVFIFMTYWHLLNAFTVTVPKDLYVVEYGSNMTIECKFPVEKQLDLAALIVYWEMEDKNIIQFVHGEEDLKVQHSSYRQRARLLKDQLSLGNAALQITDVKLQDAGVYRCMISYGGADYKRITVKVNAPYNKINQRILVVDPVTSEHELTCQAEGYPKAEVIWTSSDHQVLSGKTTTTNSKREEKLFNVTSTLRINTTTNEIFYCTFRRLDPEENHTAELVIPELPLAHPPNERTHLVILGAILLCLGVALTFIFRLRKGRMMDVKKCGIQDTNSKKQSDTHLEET
Experiment: Inhibition of human PD-1/PD-L1 interaction assessed as disruption of PD-1/PD-L1 complex incubated for 2 hrs by Tag-1 Eu3+ and anti-Tag2-XL665 based HTRF assay
Type: protein-complex assay
Conditions: not given
For `Cc1c(COc2ccc(CN3CCCC[C@H]3C(=O)NCC(C)(C)O)cc2[N+](=O)[O-])cccc1-c1ccccc1`, the IC50 was 12.1 nM.
`Cc1c(COc2ccc(CN3CCCC[C@H]3C(=O)N[C@H](C(=O)O)[C@@H](C)O)cc2[N+](=O)[O-])cccc1-c1ccccc1` showed an IC50 of 26.7 nM.
`Cc1c(COc2cc(OCc3cccc(C#N)c3)c(CN3CCC[C@H]3C(=O)O)cc2[N+](=O)[O-])cccc1-c1ccccc1` gave an IC50 of 22.7 nM.
`Cc1c(COc2cc(OCc3cccc(C#N)c3)c(CN3CCCC[C@H]3C(=O)NCC(C)(C)O)cc2[N+](=O)[O-])cccc1-c1ccccc1` gave an IC50 of 4.77 nM.
Compound `Cc1c(COc2ccc(CN3CCC[C@H]3C(=O)N[C@@H](CO)C(=O)O)cc2[N+](=O)[O-])cccc1-c1ccccc1` has an IC50 of 73.2 nM.
`Cc1c(COc2ccc(CN(C)CC(=O)O)cc2[N+](=O)[O-])cccc1-c1ccccc1` gave an IC50 of 20.9 nM.
`CC(=O)NCCNCc1ccc(OCc2cccc(-c3ccccc3)c2C)c([N+](=O)[O-])c1` showed an IC50 of 13.1 nM.
`Cc1c(COc2ccc(CNCC(C)(C)O)cc2[N+](=O)[O-])cccc1-c1ccccc1` gave an IC50 of 46.7 nM.
`Cc1c(COc2cc(OCc3cccc(C#N)c3)c(CNC(CO)CO)cc2[N+](=O)[O-])cccc1-c1ccccc1` gave an IC50 of 7.8 nM.
In the case of `Cc1c(COc2ccc(CN3CCC[C@H]3C(=O)N[C@H](C(=O)O)[C@@H](C)O)cc2[N+](=O)[O-])cccc1-c1ccccc1`, the IC50 is reported as 55.6 nM.
In the case of `Cc1c(COc2cc(OCc3cccnc3)c(CN3CCCC[C@H]3C(=O)O)cc2[N+](=O)[O-])cccc1-c1ccccc1`, the IC50 is reported as 8.75 nM.
Work on `Cc1c(COc2cc(OCc3cccc(C#N)c3)c(CN3CCCC[C@H]3C(=O)N[C@@H](CO)C(=O)O)cc2[N+](=O)[O-])cccc1-c1ccccc1` yielded an IC50 of 8.01 nM.
In the case of `Cc1c(COc2ccc(CNCc3ccoc3)cc2[N+](=O)[O-])cccc1-c1ccccc1`, the IC50 is reported as 87.4 nM.
`Cc1c(COc2cc(OCc3ccnc(C#N)c3)c(CN[C@@H](CO)C(=O)O)cc2[N+](=O)[O-])cccc1-c1ccccc1` showed an IC50 of 9.33 nM.
With `Cc1c(COc2ccc(CNC(CO)CO)cc2[N+](=O)[O-])cccc1-c1ccccc1` the IC50 was 8.91 nM.
For `Cc1c(COc2cc(OCc3cccc(C#N)c3)c(CN[C@@H](CO)C(=O)O)cc2[N+](=O)[O-])cccc1-c1ccccc1`, the IC50 was 13 nM.
For `Cc1c(COc2ccc(CN3CCCC[C@H]3C(=O)O)cc2[N+](=O)[O-])cccc1-c1ccccc1`, the IC50 was 8.78 nM.
With `Cc1c(COc2cc(OCc3ccnc(C#N)c3)c(CN3CCCC[C@H]3C(=O)O)cc2[N+](=O)[O-])cccc1-c1ccccc1` the IC50 was 10.2 nM.
For `Cc1c(COc2ccc(CN3CCC[C@H]3C(=O)NCCO)cc2[N+](=O)[O-])cccc1-c1ccccc1`, the IC50 was 55.7 nM.
`Cc1c(COc2cc(OCc3cccc(C#N)c3)c(CN3CCCC[C@H]3C(=O)N3CCC[C@H]3C(=O)O)cc2[N+](=O)[O-])cccc1-c1ccccc1` gave an IC50 of 4.31 nM.
`Cc1c(COc2cc(OCc3ccnc(C#N)c3)c(CN[C@H](C(=O)O)[C@@H](C)O)cc2[N+](=O)[O-])cccc1-c1ccccc1` showed an IC50 of 10.2 nM.
For `Cc1c(COc2ccc(CNC(C)(CO)CO)cc2[N+](=O)[O-])cccc1-c1ccccc1`, the IC50 was 92.1 nM.
In the case of `Cc1c(COc2ccc(CN3CCC[C@H]3C(=O)N(C)CC(O)CO)cc2[N+](=O)[O-])cccc1-c1ccccc1` (stereo partly specified), the IC50 is reported as 9.98 nM.
`Cc1c(COc2ccc(CN3CCCC[C@H]3C(=O)N[C@@H](CO)C(=O)O)cc2[N+](=O)[O-])cccc1-c1ccccc1` gave an IC50 of 12.4 nM.
With `Cc1c(COc2ccc(CN3CCC[C@H]3C(=O)NC(C)(CO)CO)cc2[N+](=O)[O-])cccc1-c1ccccc1` the IC50 was 49.4 nM.
Compound `Cc1c(COc2ccc(CN3CCC[C@H]3C(=O)NCC(C)(C)O)cc2[N+](=O)[O-])cccc1-c1ccccc1` has an IC50 of 71.2 nM.
`CC(=O)NCCNCc1cc([N+](=O)[O-])c(OCc2cccc(-c3ccccc3)c2C)cc1OCc1cccc(C#N)c1` gave an IC50 of 8.11 nM.
In the case of `Cc1c(COc2ccc(CNCCN(C)C)cc2[N+](=O)[O-])cccc1-c1ccccc1`, the IC50 is reported as 37.7 nM.
Work on `Cc1c(COc2cc(OCc3cccc(C#N)c3)c(CN3CCCC[C@H]3C(=O)O)cc2[N+](=O)[O-])cccc1-c1ccccc1` yielded an IC50 of 5.65 nM.
With `Cc1c(COc2cc(OCc3cccnc3)c(CN[C@@H](CO)C(=O)O)cc2[N+](=O)[O-])cccc1-c1ccccc1` the IC50 was 17.9 nM.
In the case of `CCC(CO)(CO)NC(=O)[C@@H]1CCCN1Cc1ccc(OCc2cccc(-c3ccccc3)c2C)c([N+](=O)[O-])c1`, the IC50 is reported as 82.3 nM.
Work on `Cc1c(COc2ccc(CNCCC(=O)O)cc2[N+](=O)[O-])cccc1-c1ccccc1` yielded an IC50 of 39.5 nM.
`Cc1c(COc2ccc(CN[C@@H](CO)C(=O)O)cc2[N+](=O)[O-])cccc1-c1ccccc1` showed an IC50 of 27.7 nM.
Work on `Cc1c(COc2cc(OCc3cccnc3)c(CN[C@H](C(=O)O)[C@@H](C)O)cc2[N+](=O)[O-])cccc1-c1ccccc1` yielded an IC50 of 15.5 nM.
`Cc1c(COc2cc(OCc3cccc(C#N)c3)c(CNCCO)cc2[N+](=O)[O-])cccc1-c1ccccc1` gave an IC50 of 3.59 nM.
For `Cc1c(COc2ccc(CN[C@@H](CO)C(=O)O)c(OCc3cccc(C#N)c3)c2)cccc1-c1ccccc1`, the IC50 was 30.2 nM.
`Cc1c(COc2ccc(CN3CCCC[C@H]3C(=O)N[C@@H](C)C(=O)O)cc2[N+](=O)[O-])cccc1-c1ccccc1` showed an IC50 of 12.7 nM.
For `CSCC[C@H](NCc1ccc(OCc2cccc(-c3ccccc3)c2C)c([N+](=O)[O-])c1)C(=O)O`, the IC50 was 17.8 nM.
With `CC(=O)NCCNC(=O)[C@@H]1CCCN1Cc1ccc(OCc2cccc(-c3ccccc3)c2C)c([N+](=O)[O-])c1` the IC50 was 56.4 nM.
`Cc1c(COc2ccc(CN3CCC[C@H]3C(=O)O)cc2[N+](=O)[O-])cccc1-c1ccccc1` showed an IC50 of 45.2 nM.
For `Cc1c(COc2cc(OCc3cccc(C#N)c3)c(CN(C)CC(=O)O)cc2[N+](=O)[O-])cccc1-c1ccccc1`, the IC50 was 7.44 nM.
`Cc1c(COc2ccc(CN[C@H](C(=O)O)[C@@H](C)O)cc2[N+](=O)[O-])cccc1-c1ccccc1` showed an IC50 of 61 nM.
In the case of `Cc1c(COc2ccc(CN3CCC[C@H]3C(=O)N[C@@H](C)CO)cc2[N+](=O)[O-])cccc1-c1ccccc1`, the IC50 is reported as 61.8 nM.
With `Cc1c(COc2ccc(CN(CCO)CCO)cc2[N+](=O)[O-])cccc1-c1ccccc1` the IC50 was 21.4 nM.
For `Cc1c(COc2ccc(CN3CCCC[C@H]3C(=O)N3CCC[C@H]3C(=O)O)cc2[N+](=O)[O-])cccc1-c1ccccc1`, the IC50 was 14.8 nM.
`C[C@@H](O)[C@H](NCc1ccc(OCc2cccc(-c3ccccc3)c2Br)c([N+](=O)[O-])c1)C(=O)O` gave an IC50 of 353 nM.
Work on `Cc1c(COc2ccc(CNCCO)cc2[N+](=O)[O-])cccc1-c1ccccc1` yielded an IC50 of 11.8 nM.
Compound `Cc1c(COc2ccc(CNCCCNC(CO)CO)cc2[N+](=O)[O-])cccc1-c1ccccc1` has an IC50 of 28.7 nM.

Test system: not listed separately
Experiment: Anti-tumor activity against mouse lewis lung carcinoma cells allografted in C57BL6 mouse assessed as reduction in tumor growth at 5 mg/kg, ig for 21 days relative to control
Type: functional
Conditions: po, 504 h, time 21 day, read-out: TGI
Work on `Cc1c(COc2ccc(CN[C@@H](CO)C(=O)O)c(OCc3cccc(C#N)c3)c2)cccc1-c1ccccc1` yielded an inhibition in vivo at 5 mg/kg of 17.8%.

Test system: Mus musculus
Experiment: Toxicity in C57BL6 mouse allografted with mouse lewis lung carcinoma cells assessed as reduction body weight at 5 mg/kg, ig for 21 days
Type: organism-based
Conditions: in vivo, po, 504 h, time 21 day
For `Cc1c(COc2ccc(CN[C@@H](CO)C(=O)O)c(OCc3cccc(C#N)c3)c2)cccc1-c1ccccc1`, the Activity was “Non-Toxic”.

Test system: Mus musculus
Experiment: Upregulation of IFNgamma protein expression in C57BL6 mouse serum allografted with mouse lewis lung carcinoma cells at 5 mg/kg, ig for 21 days by ELISA
Type: functional, organism-based
Conditions: time 21.0 day
With `Cc1c(COc2ccc(CN[C@@H](CO)C(=O)O)c(OCc3cccc(C#N)c3)c2)cccc1-c1ccccc1` the Activity was “Active”.

Reference: ChEMBL document CHEMBL5033993, “Design, Synthesis, and Evaluation of o-(Biphenyl-3-ylmethoxy)nitrophenyl Derivatives as PD-1/PD-L1 Inhibitors with Potent Anticancer Efficacy In Vivo” (J Med Chem, 2021)
